Test results: ChEMBL document CHEMBL5316345, “Discovery of the Potent and Selective MC4R Antagonist PF-07258669 for the Potential Treatment of Appetite Loss” (J Med Chem, 2023)
Calls of active or inactive are those of the source. No cut-off for these calls is given here.

Assays:
[1] = Tmax in Beagle dog at 1 mg/kg, po measured at 0.25 to 24 hrs by LC-MS/MS analysis; format: ADME, organism-based, Canis lupus familiaris; conditions: in vivo, time 0.25-24 hrs
[2] = Half life in Beagle dog at 1 mg/kg, iv measured at 0.033 to 24 hrs by LC-MS/MS analysis; format: ADME, organism-based, Canis lupus familiaris; conditions: in vivo, time 0.033-24 hrs
[3] = AUClast in Beagle dog at 1 mg/kg, po measured at 0.25 to 24 hrs by LC-MS/MS analysis; format: ADME, organism-based, Canis lupus familiaris; design: time upper 24 hrs, dose 1 mg/kg, time lower 0.25 hrs, route po; conditions: in vivo
[4] = AUC (0 to infinity) in Wistar Han rat at 1 mg/kg, iv measured at 0.033 to 24 hrs by LC-MS/MS analysis; format: ADME, organism-based; design: time upper 24 hrs, dose 1 mg/kg, time lower 0.033 hrs, route iv; conditions: in vivo
[5] = Oral bioavailability in Wistar Han rat at 5 mg/kg measured at 0.083 to 24 hrs by LC-MS/MS analysis; format: ADME, organism-based; conditions: in vivo, time 0.083-24 hrs
[6] = Half life in Wistar Han rat at 5 mg/kg, po measured at 0.083 to 24 hrs by LC-MS/MS analysis; format: ADME, organism-based; conditions: in vivo, time 0.083-24 hrs
[7] = target: cGMP-specific 3',5'-cyclic phosphodiesterase (Homo sapiens, UniProt O76074); assay: Inhibition of human PDE5A1
[8] = Volume of distribution at steady state in Beagle dog at 1 mg/kg, iv measured at 0.033 to 24 hrs by LC-MS/MS analysis; format: ADME, organism-based, Canis lupus familiaris; conditions: in vivo, time 0.033-24 hrs, read-out: Vdss
[9] = target: Melanocortin receptor 3 (Homo sapiens, UniProt P41968); assay: Displacement of [125I]-NDP-alpha-MSH from human MC3R expressed in CHO cells measured for 2 hrs by microbeta counter analysis; format: cell-based
[10] = test system: Mus musculus; assay: Effect on body weight in anorexia/cachexia mouse model assessed as cumulative body weight gain at 0.3 mg/kg, po administered twice a day for 20 days and measured at 1 to 21 days; format: functional; conditions: time 1-21 day
[11] = target: Voltage-dependent L-type calcium channel subunit alpha-1C (Homo sapiens, UniProt Q13936); assay: Inhibition of Cav1.2 (unknown origin)
Sequence of Voltage-dependent L-type calcium channel subunit alpha-1C (Q13936 whole entry): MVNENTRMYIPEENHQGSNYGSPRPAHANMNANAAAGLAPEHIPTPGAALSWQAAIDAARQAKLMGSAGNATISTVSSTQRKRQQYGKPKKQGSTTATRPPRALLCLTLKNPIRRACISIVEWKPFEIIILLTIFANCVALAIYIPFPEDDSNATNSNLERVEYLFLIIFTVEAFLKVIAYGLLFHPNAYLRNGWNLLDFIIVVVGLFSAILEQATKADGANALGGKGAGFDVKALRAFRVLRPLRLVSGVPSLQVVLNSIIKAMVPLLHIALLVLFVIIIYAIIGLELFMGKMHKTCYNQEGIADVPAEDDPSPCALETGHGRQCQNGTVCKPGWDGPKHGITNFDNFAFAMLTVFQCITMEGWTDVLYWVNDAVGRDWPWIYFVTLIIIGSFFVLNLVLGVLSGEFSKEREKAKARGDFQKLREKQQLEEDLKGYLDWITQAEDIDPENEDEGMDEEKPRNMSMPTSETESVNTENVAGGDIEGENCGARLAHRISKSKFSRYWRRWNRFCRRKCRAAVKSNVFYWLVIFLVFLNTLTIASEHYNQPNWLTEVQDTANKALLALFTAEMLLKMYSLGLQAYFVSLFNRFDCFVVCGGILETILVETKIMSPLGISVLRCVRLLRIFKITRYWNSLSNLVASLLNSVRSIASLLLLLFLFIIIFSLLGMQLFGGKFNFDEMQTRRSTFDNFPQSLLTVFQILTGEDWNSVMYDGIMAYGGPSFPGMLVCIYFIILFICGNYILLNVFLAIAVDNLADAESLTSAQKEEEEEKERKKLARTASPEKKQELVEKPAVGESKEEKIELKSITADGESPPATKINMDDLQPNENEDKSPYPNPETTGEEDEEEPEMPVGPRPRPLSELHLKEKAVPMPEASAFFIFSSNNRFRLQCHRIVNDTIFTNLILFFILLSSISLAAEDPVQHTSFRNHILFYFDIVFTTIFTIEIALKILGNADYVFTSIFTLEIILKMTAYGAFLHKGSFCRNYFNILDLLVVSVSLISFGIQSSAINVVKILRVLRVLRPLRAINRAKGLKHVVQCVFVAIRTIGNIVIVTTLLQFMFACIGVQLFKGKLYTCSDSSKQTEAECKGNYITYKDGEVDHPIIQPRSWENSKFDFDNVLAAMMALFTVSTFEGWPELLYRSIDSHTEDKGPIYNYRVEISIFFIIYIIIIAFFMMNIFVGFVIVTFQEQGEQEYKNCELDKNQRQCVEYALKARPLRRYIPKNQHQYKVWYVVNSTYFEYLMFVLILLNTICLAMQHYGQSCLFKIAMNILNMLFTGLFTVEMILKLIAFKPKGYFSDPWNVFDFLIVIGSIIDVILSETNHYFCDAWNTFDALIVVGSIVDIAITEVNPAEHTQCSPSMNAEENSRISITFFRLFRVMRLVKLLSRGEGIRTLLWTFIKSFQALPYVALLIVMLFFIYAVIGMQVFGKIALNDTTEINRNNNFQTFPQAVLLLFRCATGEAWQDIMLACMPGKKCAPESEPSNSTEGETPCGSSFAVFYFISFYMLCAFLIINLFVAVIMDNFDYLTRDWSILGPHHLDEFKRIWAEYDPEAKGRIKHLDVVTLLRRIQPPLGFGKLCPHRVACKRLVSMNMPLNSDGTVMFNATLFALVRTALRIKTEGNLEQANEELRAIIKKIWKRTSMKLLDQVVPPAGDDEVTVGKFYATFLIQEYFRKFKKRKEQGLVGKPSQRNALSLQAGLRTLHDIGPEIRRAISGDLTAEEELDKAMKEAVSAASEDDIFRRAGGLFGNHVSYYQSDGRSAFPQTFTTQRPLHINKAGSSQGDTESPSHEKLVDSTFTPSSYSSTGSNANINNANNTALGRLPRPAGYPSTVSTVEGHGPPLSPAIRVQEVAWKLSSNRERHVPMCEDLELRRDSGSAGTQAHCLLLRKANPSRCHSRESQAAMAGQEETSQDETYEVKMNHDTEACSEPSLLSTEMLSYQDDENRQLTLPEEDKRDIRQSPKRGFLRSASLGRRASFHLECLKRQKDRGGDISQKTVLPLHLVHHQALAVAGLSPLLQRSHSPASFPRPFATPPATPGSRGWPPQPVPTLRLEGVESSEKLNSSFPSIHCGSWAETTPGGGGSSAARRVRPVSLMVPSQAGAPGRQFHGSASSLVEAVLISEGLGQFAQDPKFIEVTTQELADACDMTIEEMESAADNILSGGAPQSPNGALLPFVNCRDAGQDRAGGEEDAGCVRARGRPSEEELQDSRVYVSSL

[12] = target: High affinity cAMP-specific and IBMX-insensitive 3',5'-cyclic phosphodiesterase 8B (Homo sapiens, UniProt O95263); assay: Inhibition of human PDE8B
Sequence of High affinity cAMP-specific and IBMX-insensitive 3',5'-cyclic phosphodiesterase 8B (O95263 whole entry): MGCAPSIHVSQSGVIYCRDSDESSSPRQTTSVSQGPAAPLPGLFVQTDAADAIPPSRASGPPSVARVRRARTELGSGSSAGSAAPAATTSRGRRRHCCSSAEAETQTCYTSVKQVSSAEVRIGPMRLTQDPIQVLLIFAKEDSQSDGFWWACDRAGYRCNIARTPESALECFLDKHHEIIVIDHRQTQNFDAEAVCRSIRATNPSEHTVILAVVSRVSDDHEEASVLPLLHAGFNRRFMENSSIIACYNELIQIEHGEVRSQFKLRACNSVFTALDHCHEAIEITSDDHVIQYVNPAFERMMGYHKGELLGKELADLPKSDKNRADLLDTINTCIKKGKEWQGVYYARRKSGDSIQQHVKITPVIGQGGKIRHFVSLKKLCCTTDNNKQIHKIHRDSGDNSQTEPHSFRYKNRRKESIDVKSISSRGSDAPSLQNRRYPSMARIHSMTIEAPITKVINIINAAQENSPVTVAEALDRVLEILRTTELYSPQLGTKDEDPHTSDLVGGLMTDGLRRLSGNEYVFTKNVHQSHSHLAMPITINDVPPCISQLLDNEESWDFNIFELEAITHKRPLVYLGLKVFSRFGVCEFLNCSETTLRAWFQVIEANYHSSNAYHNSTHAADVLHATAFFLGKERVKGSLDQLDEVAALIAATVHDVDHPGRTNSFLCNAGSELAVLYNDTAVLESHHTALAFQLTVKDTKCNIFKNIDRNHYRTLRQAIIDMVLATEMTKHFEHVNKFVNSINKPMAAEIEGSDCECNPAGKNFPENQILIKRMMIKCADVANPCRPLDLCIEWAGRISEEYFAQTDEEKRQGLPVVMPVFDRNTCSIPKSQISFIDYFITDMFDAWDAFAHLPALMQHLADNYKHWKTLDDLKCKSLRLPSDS

[13] = target: Melanocortin receptor 5 (Homo sapiens, UniProt P33032); assay: Agonist activity at human MC5R expressed in CHO cells assessed as increase in alpha-MSH induced cAMP level measured for 60 mins; format: functional, cell-based
Sequence of Melanocortin receptor 5 (P33032 whole entry): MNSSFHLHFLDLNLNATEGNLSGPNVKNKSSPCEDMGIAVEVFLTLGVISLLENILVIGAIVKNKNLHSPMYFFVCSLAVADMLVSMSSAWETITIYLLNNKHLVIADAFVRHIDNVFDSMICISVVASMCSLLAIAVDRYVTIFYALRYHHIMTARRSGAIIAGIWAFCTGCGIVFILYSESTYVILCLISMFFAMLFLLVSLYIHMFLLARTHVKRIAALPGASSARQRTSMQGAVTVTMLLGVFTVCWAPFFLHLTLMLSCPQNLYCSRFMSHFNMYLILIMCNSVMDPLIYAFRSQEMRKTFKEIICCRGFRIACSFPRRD

[14] = Cmax in Beagle dog at 1 mg/kg, po measured at 0.25 to 24 hrs by LC-MS/MS analysis; format: ADME, organism-based, Canis lupus familiaris; design: dose 1 mg/kg, time 0.25-24 hrs, route po; conditions: in vivo
[15] = AUC (0 to infinity) in Beagle dog at 1 mg/kg, iv measured at 0.033 to 24 hrs by LC-MS/MS analysis; format: ADME, organism-based, Canis lupus familiaris; design: time upper 24 hrs, dose 1 mg/kg, time lower 0.033 hrs, route iv; conditions: in vivo
[16] = AUC (0 to infinity) in Wistar Han rat at 5 mg/kg, po measured at 0.083 to 24 hrs by LC-MS/MS analysis; format: ADME, organism-based; design: dose 5 mg/kg, time 0.083-24 hrs, route po; conditions: in vivo
[17] = target: Melanocyte-stimulating hormone receptor (Homo sapiens, UniProt Q01726); assay: Displacement of [125I]-NDP-alpha-MSH from human MC1R expressed in CHO cells measured for 2 hrs by microbeta counter analysis; format: cell-based
Sequence of Melanocyte-stimulating hormone receptor (Q01726 whole entry): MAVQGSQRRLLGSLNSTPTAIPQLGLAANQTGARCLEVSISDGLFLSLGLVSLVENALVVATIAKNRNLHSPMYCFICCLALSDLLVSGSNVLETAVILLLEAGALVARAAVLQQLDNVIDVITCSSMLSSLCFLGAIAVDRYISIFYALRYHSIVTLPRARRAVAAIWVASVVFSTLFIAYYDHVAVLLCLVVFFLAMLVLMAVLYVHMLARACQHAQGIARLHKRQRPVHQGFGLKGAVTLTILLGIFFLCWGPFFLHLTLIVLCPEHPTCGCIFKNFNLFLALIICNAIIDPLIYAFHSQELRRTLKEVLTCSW

[18] = Metabolic stability in human hepatocyte assessed as intrinsic clearance measured per million cells HPLC/UV/MS analysis; format: ADME, cell-based; conditions: hepatocytes, read-out: CLH
[19] = target: Phosphodiesterase 6; assay: Inhibition of human PDE6; format: protein assay
[20] = target: cGMP-inhibited 3',5'-cyclic phosphodiesterase 3A (Homo sapiens, UniProt Q14432); assay: Inhibition of human PDE3A
Sequence of cGMP-inhibited 3',5'-cyclic phosphodiesterase 3A (Q14432 whole entry): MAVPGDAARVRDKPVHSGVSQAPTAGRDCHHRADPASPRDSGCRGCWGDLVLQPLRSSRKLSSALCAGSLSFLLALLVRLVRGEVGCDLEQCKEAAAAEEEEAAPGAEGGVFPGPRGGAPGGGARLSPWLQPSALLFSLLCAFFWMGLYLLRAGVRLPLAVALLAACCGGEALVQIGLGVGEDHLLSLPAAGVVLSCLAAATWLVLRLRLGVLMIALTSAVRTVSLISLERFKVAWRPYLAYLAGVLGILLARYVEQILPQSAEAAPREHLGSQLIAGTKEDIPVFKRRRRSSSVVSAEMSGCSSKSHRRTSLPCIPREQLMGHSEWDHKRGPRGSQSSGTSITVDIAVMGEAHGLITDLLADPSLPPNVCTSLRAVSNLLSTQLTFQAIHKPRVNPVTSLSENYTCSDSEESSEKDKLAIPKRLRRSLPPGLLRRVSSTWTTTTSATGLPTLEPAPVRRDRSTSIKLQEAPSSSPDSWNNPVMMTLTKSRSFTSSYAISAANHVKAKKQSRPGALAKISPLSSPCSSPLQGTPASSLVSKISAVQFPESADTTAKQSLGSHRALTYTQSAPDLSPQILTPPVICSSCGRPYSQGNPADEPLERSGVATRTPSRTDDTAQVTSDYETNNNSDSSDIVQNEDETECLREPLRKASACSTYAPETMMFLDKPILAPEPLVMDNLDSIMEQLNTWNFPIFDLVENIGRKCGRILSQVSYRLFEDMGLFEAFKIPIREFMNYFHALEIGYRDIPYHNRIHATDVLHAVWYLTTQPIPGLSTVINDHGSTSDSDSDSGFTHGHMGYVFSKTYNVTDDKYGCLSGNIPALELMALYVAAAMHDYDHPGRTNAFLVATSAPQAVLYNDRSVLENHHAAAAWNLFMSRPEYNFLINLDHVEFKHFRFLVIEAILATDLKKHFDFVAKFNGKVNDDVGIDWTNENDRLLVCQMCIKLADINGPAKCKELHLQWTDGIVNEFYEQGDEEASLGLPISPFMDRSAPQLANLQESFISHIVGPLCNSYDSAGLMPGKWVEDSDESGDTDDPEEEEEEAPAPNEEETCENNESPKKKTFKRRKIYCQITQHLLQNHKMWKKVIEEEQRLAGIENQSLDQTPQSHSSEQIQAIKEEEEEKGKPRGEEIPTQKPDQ

Question: Which Tmax [1] does the source give for `COc1cc([C@@H](C)C(=O)N2CC[C@@]3(COc4cc(-c5ncccn5)c(C)nc4N3)C2)c(F)cn1` here?
Answer: Its Tmax is 22.8 min.

Question: And the half-life [2]?
Answer: The half-life was 138 min.

Question: What about the AUC(0-t) [3] of the same compound?
Answer: The AUC(0-t) was 4580 ng·h/mL.

Question: And the AUC(0-inf) [4]?
Answer: Its AUC(0-inf) is 785 ng·h/mL.

Question: What about the bioavailability [5] of the same compound?
Answer: Its bioavailability is 28%.

Question: What about the half-life [6] of the same compound?
Answer: Its half-life is 58.8 min.

Question: And the IC50 [7]?
Answer: Its IC50 is > 50 µM.

Question: What about the Vd [8] of the same compound?
Answer: The Vd was 1.3 L/kg.

Question: And the Ki [9]?
Answer: Its Ki is 0.34 µM.

Question: And the Activity [10]?
Answer: Its Activity is 2%.

Question: And the IC50 [11]?
Answer: The IC50 was > 100 µM.

Question: What about the IC50 [12] of the same compound?
Answer: The IC50 was > 50 µM.

Question: And the Activity [13]?
Answer: The Activity was “inactive”.

Question: And the Cmax [14]?
Answer: Its Cmax is 1470 ng/mL.

Question: And the AUC [15]?
Answer: Its AUC is 1660 ng·h/mL.

Question: And the AUC(0-inf) [16]?
Answer: The AUC(0-inf) was 1120 ng·h/mL.

Question: And the Ki [17]?
Answer: The Ki was > 1.6 µM.

Question: What about the hepatocyte CLint [18] of the same compound?
Answer: The hepatocyte CLint was 12 µL/min/1e6 cells.

Question: What about the IC50 [19] of the same compound?
Answer: Its IC50 is > 50 µM.

Question: What about the IC50 [20] of the same compound?
Answer: The IC50 was > 50 µM.
